Assay results published in US8067424B2, “Selective inhibitors for cyclin-dependent kinases” (Emory University, priority 2007, dated 2011).
Where two headings read alike, the source gives them in different places.

Tests used:
K-562 = assay: cells; details: Homo sapiens
CCRF-CEM [1] = details: for Mean Optical Densities / Percent Growth: CCRF-CEM
BT-549 = assay: cells; details: Homo sapiens
OVCAR-5 = assay: cells; details: Homo sapiens
UO-31 = assay: cells; details: Homo sapiens
CCRF-CEM [2] = assay: cells; details: Homo sapiens
SF-268 = assay: cells; details: Homo sapiens
NCI-H460 = assay: cells; details: Homo sapiens
MALME-3M = assay: cells; details: Homo sapiens
MDA-MB-231/ATCC [3] = assay: cells; details: Homo sapiens
MDA-MB-231/ATCC [4] = details: for Mean Optical Densities / Percent Growth: MDA-MB-231/ATCC
MCF-7 tumors = assay: MCF-7 tumor growth in nude mice, BS-181 i.p.; assay type: in vivo, nu/nu-BALB/c athymic nude mice; details: i.p. twice daily, 14 days
Text: This example illustrates that BS-181 is capable of inhibiting MCF-7 tumor growth in nude mice. The following protocol was used in these mouse xenograft experiments. Female, 7-week-old, nu/nu-BALB/c athymic nude mice were purchased from Harlan Olac Ltd. The animals were housed in isolated ventilator cages (IVC) in a 12-h light/dark cycle. The animals received sterilized water and sterile rodent food ad libitum. All procedures were approved by the CBS, Imperial College London Ethics Committee and were covered by a Government Home Office project license for these specific studies. Before inoculation of animal with cells, a 0.72 mg 17β Estradiol 60-day release pellet was implanted subcutaneously (Innovative Research of America, USA). For insertion, animals were anaesthetised, an incision was made to the flank of the animals under aseptic conditions and pellets were implanted. The wound was closed with stainless steel sutures. MCF-7 cells (5×10^6 cells) were injected subcutaneously in not more than 0.1 ml volume into the flank of the animals. Tumor measurements were performed twice per week, and volumes were calculated using the formula ½ [length (mm)]×[width (mm)]^2. […] Throughout the 14-day treatment period animal weights were determined each day and tumor volume every 48 hours.

[5] = MDA-MB-468, log10 concentration −4.0
[6] = MDA-MB-468, log10 concentration −5.0
[7] = MDA-MB-468, log10 concentration −6.0
[8] = MDA-MB-468, log10 concentration −7.0
[9] = MDA-MB-468, log10 concentration −8.0
[10] = OVCAR-8, log10 concentration −4.0
[11] = OVCAR-8, log10 concentration −5.0
[12] = OVCAR-8, log10 concentration −6.0
[13] = OVCAR-8, log10 concentration −7.0
[14] = OVCAR-8, log10 concentration −8.0
[15] = HCT-15, log10 concentration −4.0
[16] = HCT-15, log10 concentration −5.0
[17] = HCT-15, log10 concentration −6.0
[18] = HCT-15, log10 concentration −7.0
[19] = HCT-15, log10 concentration −8.0

CC(C)c1cnn2c(NCc3ccccc3)cc(N[C@@H](CO)[C@H](O)CO)nc12 [ICEC0318, (3S)-3-(7-(Benzylamino)-3-isopropylpyrazolo[1,5-a]pyrimidin-5-ylamino)butane-1,2,4-triol]
TGI (KM12; KM12 (Colon Cancer)): >1.00E−4 | Mean Optical Densities (KM12; KM12, log10 concentration −4.0): 0.305 | Percent Growth (KM12; KM12, log10 concentration −4.0): 10% | Mean Optical Densities (KM12; KM12, log10 concentration −5.0): 0.304 | Percent Growth (KM12; KM12, log10 concentration −5.0): 10% | Mean Optical Densities (KM12; KM12, log10 concentration −6.0): 0.318 | Percent Growth (KM12; KM12, log10 concentration −6.0): 12% | Mean Optical Densities (KM12; KM12, log10 concentration −7.0): 0.802 | Percent Growth (KM12; KM12, log10 concentration −7.0): 80% | Mean Optical Densities (KM12; KM12, log10 concentration −8.0): 1.036 | Percent Growth (KM12; KM12, log10 concentration −8.0): 113% | GI50 (K-562; K562): 288 nM | CC50 (K-562; K562, read-out: LC50): > 100000 nM | TGI (CCRF-CEM [1]; CCRF-CEM (Leukemia)): >1.00E−4 | Mean Optical Densities (CCRF-CEM [1]; log10 concentration −4.0): 0.227 | Percent Growth (CCRF-CEM [1]; log10 concentration −4.0): 11% | Mean Optical Densities (CCRF-CEM [1]; log10 concentration −5.0): 0.330 | Percent Growth (CCRF-CEM [1]; log10 concentration −5.0): 33% | Mean Optical Densities (CCRF-CEM [1]; log10 concentration −6.0): 0.279 | Percent Growth (CCRF-CEM [1]; log10 concentration −6.0): 22% | Mean Optical Densities (CCRF-CEM [1]; log10 concentration −7.0): 0.565 | Percent Growth (CCRF-CEM [1]; log10 concentration −7.0): 82% | Mean Optical Densities (CCRF-CEM [1]; log10 concentration −8.0): 0.769 | Percent Growth (CCRF-CEM [1]; log10 concentration −8.0): 125% | GI50 (BT-549; BT-549): 258 nM | CC50 (BT-549; BT-549, read-out: LC50): > 100000 nM | GI50 (OVCAR-5; OVCAR-5): 305 nM | CC50 (OVCAR-5; OVCAR-5, read-out: LC50): > 100000 nM | GI50 (UO-31; UO-31): 289 nM | CC50 (UO-31; UO-31, read-out: LC50): > 100000 nM | GI50 (CCRF-CEM [2]): 342 nM | GI50 (MDA-MB-468; Homo sapiens, MDA-MB-468): 165 nM | CC50 (MDA-MB-468; Homo sapiens, MDA-MB-468, read-out: LC50): 803 nM | TGI (MDA-MB-468; MDA-MB-468 (Breast Cancer)): 3.64E−7 | Mean Optical Densities (MDA-MB-468; [5]): 0.121 | Percent Growth (MDA-MB-468; [5]): −72% | Mean Optical Densities (MDA-MB-468; [6]): 0.153 | Percent Growth (MDA-MB-468; [6]): −64% | Mean Optical Densities (MDA-MB-468; [7]): 0.154 | Percent Growth (MDA-MB-468; [7]): −64% | Mean Optical Densities (MDA-MB-468; [8]): 0.884 | Percent Growth (MDA-MB-468; [8]): 82% | Mean Optical Densities (MDA-MB-468; [9]): 0.946 | Percent Growth (MDA-MB-468; [9]): 93% | TGI (OVCAR-8; OVCAR-8 (Ovarian Cancer)): >1.00E−4 | Mean Optical Densities (OVCAR-8; [10]): 0.723 | Percent Growth (OVCAR-8; [10]): 10% | Mean Optical Densities (OVCAR-8; [11]): 0.810 | Percent Growth (OVCAR-8; [11]): 16% | Mean Optical Densities (OVCAR-8; [12]): 0.803 | Percent Growth (OVCAR-8; [12]): 15% | Mean Optical Densities (OVCAR-8; [13]): 1.975 | Percent Growth (OVCAR-8; [13]): 89% | Mean Optical Densities (OVCAR-8; [14]): 2.165 | Percent Growth (OVCAR-8; [14]): 101% | GI50 (SF-268; SF-268): 326 nM | CC50 (SF-268; SF-268, read-out: LC50): > 100000 nM | TGI (HCT-15; HCT-15 (Colon Cancer)): >1.00E−4 | Mean Optical Densities (HCT-15; [15]): 0.268 | Percent Growth (HCT-15; [15]): 2% | Mean Optical Densities (HCT-15; [16]): 0.286 | Percent Growth (HCT-15; [16]): 3% | Mean Optical Densities (HCT-15; [17]): 0.481 | Percent Growth (HCT-15; [17]): 21% | Mean Optical Densities (HCT-15; [18]): 1.262 | Percent Growth (HCT-15; [18]): 90% | Mean Optical Densities (HCT-15; [19]): 1.354 | Percent Growth (HCT-15; [19]): 98% | GI50 (NCI-H460; NCI-H460): 258 nM | CC50 (NCI-H460; NCI-H460, read-out: LC50): > 100000 nM | GI50 (MALME-3M): 404 nM | CC50 (MALME-3M; read-out: LC50): > 100000 nM | GI50 (MDA-MB-231/ATCC [3]; MDA-MB-231): 438 nM | CC50 (MDA-MB-231/ATCC [3]; MDA-MB-231, read-out: LC50): > 100000 nM | TGI (MDA-MB-231/ATCC [4]; MDA-MB-231/ATCC (Breast Cancer)): >1.00E−4 | Mean Optical Densities (MDA-MB-231/ATCC [4]; log10 concentration −4.0): 0.482 | Percent Growth (MDA-MB-231/ATCC [4]; log10 concentration −4.0): 11% | Mean Optical Densities (MDA-MB-231/ATCC [4]; log10 concentration −5.0): 0.529 | Percent Growth (MDA-MB-231/ATCC [4]; log10 concentration −5.0): 19% | Mean Optical Densities (MDA-MB-231/ATCC [4]; log10 concentration −6.0): 0.548 | Percent Growth (MDA-MB-231/ATCC [4]; log10 concentration −6.0): 22% | Mean Optical Densities (MDA-MB-231/ATCC [4]; log10 concentration −7.0): 1.039 | Percent Growth (MDA-MB-231/ATCC [4]; log10 concentration −7.0): 101% | Mean Optical Densities (MDA-MB-231/ATCC [4]; log10 concentration −8.0): 1.087 | Percent Growth (MDA-MB-231/ATCC [4]; log10 concentration −8.0): 109%

CC(C)c1cnn2c(NCc3ccccc3)cc(NCCCCCCCN)nc12 [BS-181]
Change in animal weight (MCF-7 tumors): nearly constant | Increase in tumor volume relative to day one (MCF-7 tumors; different doses): increased more slowly with increasing dosage
